# PMC10969742, “A Phase I Study of the Oral Dual-Acting Pan-PI3K/mTOR Inhibitor Bimiralisib in Patients with Advanced Solid Tumors” (Cancers, 2024)
# Where two headings read alike, the source gives them in different places.
# Assay: Plasma pharmacokinetics of bimiralisib, non-compartmental analysis (LC-MS)
# Type: in vivo, human
# Settings: for AUC(0-t) / Cmax / Tmax: human, plasma, oral; for Cmax: read-out: Cmax Mean (%CV); for Tmax: read-out: Tmax Median, (Range)
# Method: Blood samples were collected to enable full PK profiling of bimiralisib. The PK samples were taken pre-dose and at 0.5, 1, 2, 4, 6, 8, and 24 h post-dosing in the three schedules, with additional timepoints depending on the schedule (48 h in the continuous schedule, 12, 16, and 48 h in intermittent schedule A and 12, 16, and 72 h in intermittent schedule B). PK sampling was repeated on cycle 1 Day 8 (continuous schedule: pre-dose and 1 h post-dose; intermittent schedules A and B: pre-dose and 0.5, 1, 2, 4, 6, 8, and 24 h post-dose), on cycle 1 Day 15 (continuous schedule: pre-dose and 0.5, 1, 2, 4, 6 and 8 h post-dose; intermittent schedules A and B: pre-dose and 4 h post-dose), and on cycle 2 Day 1 (continuous dosing: pre-dose and 1 h post-dose). Samples were sent to a central laboratory for analysis using liquid-chromatography mass spectrometry. The pharmacokinetics of bimiralisib were determined by non-compartmental analysis. Area under the concentration vs. time curve (AUC) was calculated using the linear up log down trapezoidal method. Accumulation was calculated as the ratio of cycle 1 on Day 15 AUC0–8h versus cycle 1 on Day -3 AUC0–8h.
# [1] = 80 mg, Continuous Dosing, 80 mg, Day 15, 7 patients
# [2] = 80 mg, Continuous Dosing, 80 mg, Day -3, 11 patients
# [3] = 80 mg, Intermittent Dose Schedule A, 80 mg, Day 8, 3 patients
# [4] = 80 mg, Intermittent Dose Schedule A, 80 mg, Day -3, 4 patients
# [5] = 80 mg, Intermittent Dose Schedule B, 80 mg, Day 1, 4 patients
# [6] = 80 mg, Intermittent Dose Schedule B, 80 mg, Day 8, 4 patients
# [7] = 100 mg, Continuous Dosing, 100 mg, Day 1, 5 patients
# [8] = 100 mg, Continuous Dosing, 100 mg, Day 15, 2 patients
# [9] = 100 mg, Intermittent Dose Schedule A, 100 mg, Day -3, 4 patients
# [10] = 100 mg, Intermittent Dose Schedule B, 100 mg, Day 1, 7 patients
# [11] = 100 mg, Intermittent Dose Schedule B, 100 mg, Day 8, 6 patients
# [12] = 120 mg, Continuous Dosing, 120 mg, Day 1, 5 patients
# [13] = 120 mg, Continuous Dosing, 120 mg, Day 15, 1 patient
# [14] = 120 mg, Intermittent Dose Schedule A, 120 mg, Day 8, 3 patients
smiles,measurement,setting,value
"Nc1cc(C(F)(F)F)c(-c2nc(N3CCOCC3)nc(N3CCOCC3)n2)cn1 [bimiralisib, 5-(4,6-Dimorpholino-1,3,5-triazin-2-yl)-4-(trifluoromethyl)pyridin-2-amine]",Dose proportionality of concentration-time data,"all dosing schedules, 80–200 mg",not proportional to doses
same,"Median half-life, calculated from accumulation","continuous schedule, range < 6–146 h",39.5 h
same,Median accumulation ratio (cycle 1 Day 15 AUC0–8h versus Day -3 AUC0–8h),"continuous schedule, range, <1.0–9.3",2.9
same,AUC(0-t),"80 mg, Continuous Dosing, 80 mg, Day 15, 7 patients, read-out: AUC0–8 Geometric Mean (%CV)",4.09 µg·h/mL
same,Cmax,[1],0.766 µg/mL
same,Tmax,[1],1 h
same,AUC(0-t),"80 mg, Continuous Dosing, 80 mg, Day -3, 11 patients, read-out: AUC0–8 Geometric Mean (%CV)",1.53 µg·h/mL
same,AUC(0-t),"80 mg, Continuous Dosing, 80 mg, Day -3, 11 patients, read-out: AUC0–24 Geometric Mean (%CV)",4.29 µg·h/mL
same,Cmax,[2],0.407 µg/mL
same,Tmax,[2],2 h
same,AUC(0-t),"80 mg, Intermittent Dose Schedule A, 80 mg, Day 8, 3 patients, read-out: AUC0–8 Geometric Mean (%CV)",2.35 µg·h/mL
same,Cmax,[3],0.614 µg/mL
same,Tmax,[3],1 h
same,AUC(0-t),"80 mg, Intermittent Dose Schedule A, 80 mg, Day 8, n = 1, read-out: AUC0–24 Geometric Mean (%CV)",6.74 µg·h/mL
same,AUC(0-t),"80 mg, Intermittent Dose Schedule A, 80 mg, Day -3, 4 patients, read-out: AUC0–8 Geometric Mean (%CV)",1.58 µg·h/mL
same,AUC(0-t),"80 mg, Intermittent Dose Schedule A, 80 mg, Day -3, 4 patients, read-out: AUC0–24 Geometric Mean (%CV)",3.54 µg·h/mL
same,Cmax,[4],0.41 µg/mL
same,Tmax,[4],1.5 h
same,AUC(0-t),"80 mg, Intermittent Dose Schedule B, 80 mg, Day 1, 4 patients, read-out: AUC0–8 Geometric Mean (%CV)",1.68 µg·h/mL
same,AUC(0-t),"80 mg, Intermittent Dose Schedule B, 80 mg, Day 1, 4 patients, read-out: AUC0–24 Geometric Mean (%CV)",4 µg·h/mL
same,Cmax,[5],0.341 µg/mL
same,Tmax,[5],3 h
same,AUC(0-t),"80 mg, Intermittent Dose Schedule B, 80 mg, Day 8, 4 patients, read-out: AUC0–8 Geometric Mean (%CV)",2.6 µg·h/mL
same,Cmax,[6],0.681 µg/mL
same,Tmax,[6],1.5 h
same,AUC(0-t),"80 mg, Intermittent Dose Schedule B, 80 mg, Day 8, n = 3, read-out: AUC0–24 Geometric Mean (%CV)",6.35 µg·h/mL
same,AUC(0-t),"100 mg, Continuous Dosing, 100 mg, Day 1, 5 patients, read-out: AUC0–8 Geometric Mean (%CV)",1.69 µg·h/mL
same,AUC(0-t),"100 mg, Continuous Dosing, 100 mg, Day 1, 5 patients, read-out: AUC0–24 Geometric Mean (%CV)",4.66 µg·h/mL
same,Cmax,[7],0.441 µg/mL
same,Tmax,[7],1.7 h
same,AUC(0-t),"100 mg, Continuous Dosing, 100 mg, Day 15, 2 patients, read-out: AUC0–8 Geometric Mean (%CV)",5.75 µg·h/mL
same,Cmax,[8],1.11 µg/mL
same,Tmax,[8],2 h
same,AUC(0-t),"100 mg, Intermittent Dose Schedule A, 100 mg, Day 8, 3 patients, read-out: AUC0–8 Geometric Mean (%CV)",3.91 µg·h/mL
same,Tmax,"100 mg, Intermittent Dose Schedule A, 100 mg, Day 8, 3 patients",1 h
same,AUC(0-t),"100 mg, Intermittent Dose Schedule A, 100 mg, Day 8, n = 2, read-out: AUC0–24 Geometric Mean (%CV)",12.4 µg·h/mL
same,AUC(0-t),"100 mg, Intermittent Dose Schedule A, 100 mg, Day -3, 4 patients, read-out: AUC0–8 Geometric Mean (%CV)",1.97 µg·h/mL
same,AUC(0-t),"100 mg, Intermittent Dose Schedule A, 100 mg, Day -3, 4 patients, read-out: AUC0–24 Geometric Mean (%CV)",4.17 µg·h/mL
same,Cmax,[9],0.543 µg/mL
same,Tmax,[9],1 h
same,AUC(0-t),"100 mg, Intermittent Dose Schedule B, 100 mg, Day 1, 7 patients, read-out: AUC0–8 Geometric Mean (%CV)",1.92 µg·h/mL
same,AUC(0-t),"100 mg, Intermittent Dose Schedule B, 100 mg, Day 1, 7 patients, read-out: AUC0–24 Geometric Mean (%CV)",4.52 µg·h/mL
same,Cmax,[10],0.562 µg/mL
same,Tmax,[10],2 h
same,AUC(0-t),"100 mg, Intermittent Dose Schedule B, 100 mg, Day 8, 6 patients, read-out: AUC0–8 Geometric Mean (%CV)",2.88 µg·h/mL
same,Cmax,[11],0.714 µg/mL
same,Tmax,[11],1.5 h
same,AUC(0-t),"100 mg, Intermittent Dose Schedule B, 100 mg, Day 8, n = 4, read-out: AUC0–24 Geometric Mean (%CV)",6.2 µg·h/mL
same,AUC(0-t),"120 mg, Continuous Dosing, 120 mg, Day 1, 5 patients, read-out: AUC0–8 Geometric Mean (%CV)",2.99 µg·h/mL
same,AUC(0-t),"120 mg, Continuous Dosing, 120 mg, Day 1, 5 patients, read-out: AUC0–24 Geometric Mean (%CV)",7.6 µg·h/mL
same,Cmax,[12],0.876 µg/mL
same,Tmax,[12],2 h
same,AUC(0-t),"120 mg, Continuous Dosing, 120 mg, Day 15, 1 patient, read-out: AUC0–8 Geometric Mean (%CV)",6.43 µg·h/mL
same,Cmax,[13],0.982 µg/mL
same,Tmax,[13],8 h
same,AUC(0-t),"120 mg, Intermittent Dose Schedule A, 120 mg, Day 8, 3 patients, read-out: AUC0–8 Geometric Mean (%CV)",3.71 µg·h/mL
same,AUC(0-t),"120 mg, Intermittent Dose Schedule A, 120 mg, Day 8, 3 patients, read-out: AUC0–24 Geometric Mean (%CV)",8.94 µg·h/mL
same,Cmax,[14],0.872 µg/mL
same,Tmax,[14],1 h
